{"source": "paper PMC7917901", "about": "(Marine Drugs, 2021)", "key": {"C57BL/6J mice [1]": {"system": "C57BL/6J mice", "details": "mouse, in vivo"}, "[2]": {"system": "mechanical and cold allodynia", "details": "cited from earlier work"}, "[3]": {"details": "to oxalate and dichloro 1,2-diaminocyclohexyl-platinum complex; ref [48]; cited from earlier work", "text": "Although both oxaliplatin and cisplatin are platinum based antineoplastic drugs, and both act by DNA alkylation, they differ markedly in their ability to elicit pain syndromes. […] The most distinctive feature of oxaliplatin is ..."}, "C57BL/6J mice [4]": {"system": "C57BL/6J mice", "assay": "Induction of mechanical allodynia and general observations after intraplantar oxaliplatin or cisplatin", "details": "40 µg/paw i.pl."}, "[5]": {"system": "nerve injury-induced hyperalgesia in mice", "details": "mouse, in vivo, sc; cited from earlier work"}, "[6]": {"details": "human, in vivo; cited from earlier work"}}, "note": "Read-outs that look alike come from different tables or passages of the source."}
{"smiles": "O=C1[O][Pt]2([NH][C@@H]3CCCC[C@H]3[NH]2)[O]C1=O", "note": "[oxaliplatin]", "values": [{"measurement": "Adverse signs after platinum drug injection", "setting": "C57BL/6J mice [1]", "value": "maintained healthy appearance and body weight with no sign of licking, shaking, or lameness of the injected paw"}, {"measurement": "Mechanical PWT after oxaliplatin", "setting": "C57BL/6J mice [1]", "value": "1.4 ± 0.1", "unit": "g"}, {"measurement": "Type of allodynia caused", "setting": "[2]; in vivo", "value": "causes both mechanical and cold allodynia"}, {"measurement": "Non-enzymatic transformation", "setting": "[3]", "value": "fast, non-enzymatic transformation"}]}
{"smiles": "N.N.[Cl][Pt][Cl]", "note": "[cisplatin]", "values": [{"measurement": "Adverse signs after platinum drug injection", "setting": "C57BL/6J mice [4]", "value": "No sign of adverse effects including, licking, shaking, or lameness of the injected paws was observed"}, {"measurement": "Mechanical PWT after cisplatin", "setting": "C57BL/6J mice [4]; right hind paw, 24 h after injection, mean ± SEM, n = 18, naïve 3.3 ± 0.1 g, p < 0.0001", "value": "1.9 ± 0.1", "unit": "g"}, {"measurement": "Type of allodynia caused", "setting": "[2]; ref [45],[46],[47]", "value": "only evokes mechanical allodynia"}]}
{"smiles": "COC(=O)C1=C(C)NC(C)=C(C(=O)OC)C1c1ccccc1[N+](=O)[O-]", "note": "[nifedipine]", "values": [{"measurement": "Effect on nerve injury-induced hyperalgesia", "setting": "[5]", "value": "ineffective"}]}
{"smiles": "CSCC[C@@H]1NC(=O)[C@H](CC(C)C)NC(=O)[C@H](CCCNC(=N)N)NC(=O)[C@H](CO)NC(=O)[C@@H]2CSSC[C@@H]3NC(=O)[C@H](CO)NC(=O)CNC(=O)[C@H]([C@@H](C)O)NC(=O)[C@H](CSSC[C@H](N)C(=O)N[C@@H](CCCCN)C(=O)NCC(=O)N[C@@H](CCCCN)C(=O)NCC(=O)N[C@@H](C)C(=O)N[C@@H](CCCCN)C(=O)N2)NC(=O)[C@H](CSSC[C@@H](C(N)=O)NC(=O)[C@H](CCCCN)NC(=O)CNC(=O)[C@H](CO)NC(=O)[C@H](CCCNC(=N)N)NC3=O)NC(=O)[C@H](CC(=O)O)NC(=O)[C@H](Cc2ccc(O)cc2)NC1=O", "note": "[MVIIA]", "values": [{"measurement": "Dose limiting side effects", "setting": "[6]", "value": "dose limiting side effects including dizziness, nystagmus, sedation, blurred vision, and orthostatic hypotension"}]}
